Measurements reported in patent US20250171417A1, “HETEROCYCLIC DERIVATIVE, AND COMPOSITION AND PHARMACEUTICAL USE THEREOF” (Xizang Haisco Pharmaceutical Co., Ltd., priority 2021, published 2025).
Read-outs that look alike come from different tables or passages of the source.

Experiments:
[1] = Pharmacokinetic test in rats; assay type: in vivo; details: rat, plasma, po, male SD rats; for bioavailability: i.g. 5 mg/kg vs intravenous 2 mg/kg; for AUC(0-t): i.g. 5 mg/kg
Description: Test objective: In this experiment, a single dose of each test compound was administered to SD rats intravenously and intragastrically, and the concentrations of the test compounds in plasma of rats were measured to evaluate the pharmacokinetic characteristics of the test compounds in rats.
Experimental animals: male SD rats, 200-250 g, 6-8 weeks old, 6 rats/compound, purchased from Chengdu Ddossy Experimental Animals Co., Ltd.
Experimental method: on the day of the test, 6 SD rats were randomly grouped according to their body weight; the animals were fasted with water available for 12 to 14 hours one day before the administration of a test compound, and were fed 4 hours after the administration.
Sampling: Before and after the administration, 0.1 mL of blood samples were drawn from the orbits of the animals under isoflurane anesthesia, and placed in an EDTAK2 centrifuge tube. Centrifugation was carried out at 5000 rpm at 4° C. for 10 min, and the plasma was collected.
Time points for plasma collection in IV&PO group: 0, 5 min, 15 min, 30 min, 1 h, 2 h, 4 h, 6 h, 8 h, and 24 h.
Before analysis and detection, all samples were stored at −60° C. The samples were analyzed quantitatively by LC-MS/MS.

[2] = system: Prostate cancer cells 22RV1; assay: Experiment on inhibiting 22RV1 cell proliferation (CellTiter-Glo, 7 days); assay type: cell-based; details: Homo sapiens, 168 h, 22RV1 cells, 7 days incubation, read-out: IC50 values for inhibition of 22RVI cells
Summary of the method: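 22RV1 cells at 2000/well in 1% charcoal-stripped-FBS phenol red-free medium, treated next day with compound for 7 days at 37 °C, 5% CO2. Viability by CellTiter-Glo luminescence; inhibition relative to DMSO vehicle, IC50 from dose-response fit.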

[3] = cells without a unit of their own (μM)
[4] = cells with nM printed beside the value

| Compound | bioavailability [1] | AUC(0-t) [1] | IC50 [2, 3] | IC50 [2, 4] |
| --- | --- | --- | --- | --- |
| CC(C)(C(=O)Nc1ccc(C#N)c(C(F)(F)F)c1)n1cc(C#CC2CN(c3ccc4c(c3)CN(C3CCC(=O)NC3=O)C4=O)C2)cn1 (centres unmarked) [Compound 6] | 47.3 ± 16% | 8960 ± 2940 ng·h/mL | < 1 µM | – |
| CC(C)(C(=O)Nc1ccc(C#N)c(Cl)c1)n1cc(C#CC2CN(c3ccc4c(c3)C(=O)N(C3CCC(=O)NC3=O)C4=O)C2)cn1 (centres unmarked) [Compound 12, N-(3-chloro-4-cyanophenyl)-2-(4-((1-(2-(2,6-dioxopiperidin-3-yl)-1,3-dioxoisoindolin-5-yl)azetidin-3-yl)ethynyl)-1H-pyrazol-1-yl)-2-methylpropanamide] | 73 ± 7.2% | 70500 ± 6980 ng·h/mL | – | < 0.05 µM |
| Cc1cc(NC(=O)C(C)(C)n2cc(C#CC3CN(c4ccc5c(c4)C(=O)N(C4CCC(=O)NC4=O)C5=O)C3)cn2)ccc1C#N (centres unmarked) [Compound 13, N-(4-cyano-3-methylphenyl)-2-(4-((1-(2-(2,6-dioxopiperidin-3-yl)-1,3-dioxoisoindolin-5-yl)azetidin-3-yl)ethynyl)-1H-pyrazol-1-yl)-2-methylpropanamide] | 77.8 ± 8.5% | 57800 ± 6300 ng·h/mL | < 1 µM | – |
| CC(C)(C(=O)Nc1ccc(C#N)cc1Cl)n1cc(C#CC2CN(c3ccc4c(c3)C(=O)N(C3CCC(=O)NC3=O)C4=O)C2)cn1 (centres unmarked) [Compound 20, N-(2-chloro-4-cyanophenyl)-2-(4-((1-(2-(2,6-dioxopiperidin-3-yl)-1,3-dioxoisoindolin-5-yl)azetidin-3-yl)ethynyl)-1H-pyrazol-1-yl)-2-methylpropanamide] | 62 ± 23% | 16000 ± 5820 ng·h/mL | – | < 0.05 µM |
| CC(C)(C(=O)Nc1ccc(C(F)(F)F)cc1F)n1cc(C#CC2CN(c3ccc4c(c3)C(=O)N(C3CCC(=O)NC3=O)C4=O)C2)cn1 (centres unmarked) [Compound 31, N-(2-fluoro-4-(trifluoromethyl)phenyl)-2-(4-((1-(2-(2,6-dioxopiperidin-3-yl)-1,3-dioxoisoindolin-5-yl)azetidin-3-yl)ethynyl)-1H-pyrazol-1-yl)-2-methylpropanamide] | – | 39700 ± 1890 ng·h/mL | – | < 0.1 µM |
| O=C1CCC(N2C(=O)c3cc(F)c(N4CC(C#Cc5cnn(C6(C(=O)Nc7ccc(C(F)(F)F)cc7Cl)CCC6)c5)C4)cc3C2=O)C(=O)N1 (centres unmarked) [Compound 33] | 55.3 ± 5.4% | 9390 ± 916 ng·h/mL | < 1 µM | – |
| CC(C)(C(=O)Nc1ccc(C#N)c(Br)c1)n1cc(C#CC2CN(c3ccc4c(c3)C(=O)N(C3CCC(=O)NC3=O)C4=O)C2)cn1 (centres unmarked) [Compound 37, N-(3-bromo-4-cyanophenyl)-2-(4-((1-(2-(2,6-dioxopiperidin-3-yl)-1,3-dioxoisoindolin-5-yl)azetidin-3-yl)ethynyl)-1H-pyrazol-1-yl)-2-methylpropanamide] | 69.8 ± 28% | 55800 ± 22600 ng·h/mL | – | < 0.05 µM |
| N#Cc1ccc(NC(=O)Cn2cc(C#CC3CN(c4ccc5c(c4)C(=O)N(C4CCC(=O)NC4=O)C5=O)C3)cn2)cc1C(F)(F)F (centres unmarked) [Compound 47, N-(4-cyano-3-(trifluoromethyl)phenyl)-2-(4-((1-(2-(2,6-dioxopiperidin-3-yl)-1,3-dioxoisoindolin-S-yl)azetidin-3-yl)ethynyl)-1H-pyrazol-1-yl) acetamide] | 37.7 ± 13% | 11300 ± 3880 ng·h/mL | – | < 0.05 µM |
| CC(C)(C(=O)Nc1ccc(C(F)(F)F)cc1-n1cccc1)n1cc(C#CC2CN(c3ccc4c(c3)C(=O)N(C3CCC(=O)NC3=O)C4=O)C2)cn1 (centres unmarked) [Compound 133, N-(2-(1H-pyrrol-1-yl)-4-(trifluoromethyl)phenyl)-2-(4-((1-(2-(2,6-dioxopiperidin-3-yl)-1,3-dioxoisoindolin-5-yl)azetidin-3-yl)ethynyl)-1H-pyrazol-1-yl)-2-methylpropanamide] | 70.3 ± 7.9% | 8290 ± 935 ng·h/mL | – | < 0.1 µM |

Continued, values first:

| bioavailability [1] | AUC(0-t) [1] | IC50 [2, 3] | IC50 [2, 4] | Compound |
| --- | --- | --- | --- | --- |
| 43.5 ± 7.3% | 7200 ± 1210 ng·h/mL | – | < 0.05 µM | CC(C)(C(=O)Nc1ccc(C#N)c(N2CCCC2)c1)n1cc(C#CC2CN(c3ccc4c(c3)C(=O)N(C3CCC(=O)NC3=O)C4=O)C2)cn1 (centres unmarked) [Compound 38, N-(4-cyano-3-(pyrrolidin-1-yl)phenyl)-2-(4-((1-(2-(2,6-dioxopiperidin-3-yl)-1,3-dioxoisoindolin-5-yl)azetidin-3-yl)ethynyl)-1H-pyrazol-1-yl)-2-methylpropanamide] |
| 76.1 ± 716% | 15700 ± 3200 ng·h/mL | – | < 0.05 µM | CC(C)(C(=O)Nc1ccc(C#N)c2c1CCC2)n1cc(C#CC2CN(c3ccc4c(c3)C(=O)N(C3CCC(=O)NC3=O)C4=O)C2)cn1 (centres unmarked) [Compound 141, N-(7-cyano-2,3-dihydro-1H-inden-4-yl)-2-(4-((1-(2-(2,6-dioxopiperidin-3-yl)-1,3-dioxoisoindolin-5-yl)azetidin-3-yl)ethynyl)-1H-pyrazol-1-yl)-2-methylpropanamide] |
| – | – | – | < 0.1 µM | CC(C)(C(=O)Nc1ccc(C#N)cc1C1CC1)n1cc(C#CC2CN(c3ccc4c(c3)C(=O)N(C3CCC(=O)NC3=O)C4=O)C2)c(C#N)n1 (centres unmarked) [Compound 201, N-(4-cyano-2-cyclopropylphenyl)-2-(3-cyano-4-((1-(2-(2,6-dioxopiperidin-3-yl)-1,3-dioxoisoindolin-5-yl)azetidin-3-yl)ethynyl)-1H-pyrazol-1-yl)-2-methylpropanamide] |
| – | – | – | < 0.1 µM | CC#Cc1cc(C(F)(F)F)ccc1NC(=O)C(C)(C)n1cc(C#CC2CN(c3ccc4c(c3)C(=O)N(C3CCC(=O)NC3=O)C4=O)C2)c(C#N)n1 (centres unmarked) [Compound 202, 2-(3-cyano-4-((1-(2-(2,6-dioxopiperidin-3-yl)-1,3-dioxoisoindolin-5-yl)azetidin-3-yl)ethynyl)-1H-pyrazol-1-yl)-2-methyl-N-(2-(prop-1-yn-1-yl)-4-(trifluoromethyl)phenyl) propanamide] |
| – | – | < 1 µM | – | O=C1CCC(N2C(=O)c3ccc(N4CC(C#Cc5cn(C6(C(=O)Nc7ccc(C(F)(F)F)cc7Cl)CCC6)cn5)C4)cc3C2=O)C(=O)N1 (centres unmarked) [Trifluoroacetate of compound 139, N-(2-chloro-4-(trifluoromethyl)phenyl)-1-(4-((1-(2-(2,6-dioxopiperidin-3-yl)-1,3-dioxoisoindolin-5-yl)azetidin-3-yl)ethynyl)-1H-imidazol-1-yl)cyclobutane-1-carboxamide] |
